Assay results reported in the OligoGym collection.
HELM strings list units from the 5' end as sugar, base in round brackets, then linkage (d deoxyribose, r ribose, m 2'-O-methyl, p phosphodiester). Strings are as the collection lists them, not checked against the first reports. ss, as = sense and antisense strand; [lna] = locked nucleic acid (LNA); [fl2r] = 2'-fluoro

Settings: siRNA
Also: test system not given here.

**Q.** For “RNA1{m(A)p.m(A)p.m(G)p.m(G)p.m(A)p.m(G)p.m(A)p.m(U)p.m(C)p.m(A)p.m(A)p.m(C)p.m(A)p.m(U)p.m(U)p.m(U)p.m(U)p.m(C)p.m(A)p.r(T)p.r(T)}|RNA2{[fl2r](U)p.r(G)p.r(A)p.r(A)p.r(A)p.r(A)p.[fl2r](U)p.r(G)p.r(U)p.r(U)p.r(G)p.r(A)p.[fl2r](U)p.[fl2r](C)p.[fl2r](U)p.[fl2r](C)p.[fl2r](C)p.[fl2r](U)p.[fl2r](U)p.r(T)p.r(T)}$$$RNA1{StrandType:ss}|RNA2{StrandType:as}$”, which target mRNA knockdown is on record?
**A.** 71%

**Q.** With “RNA1{r(C)p.r(U)p.r(U)p.r(A)p.r(C)p.r(G)p.r(C)p.r(U)p.r(G)p.r(A)p.r(G)p.r(U)p.r(A)p.r(C)p.r(U)p.r(U)p.r(C)p.r(G)p.r(A)p.r(T)p.r(T)}|RNA2{r(T)p.r(C)p.r(G)p.r(A)p.r(A)p.r(G)p.[lna](T)p.r(A)p.r(C)p.r(U)p.r(C)p.r(A)p.r(G)p.r(C)p.r(G)p.r(U)p.r(A)p.r(A)p.r(G)p.[lna](T)p.[lna](T)}$$$RNA1{StrandType:ss}|RNA2{StrandType:as}$” as the substance, how does the target mRNA knockdown read?
**A.** 93%

**Q.** For “RNA1{m(U)p.r(C)p.m(U)p.r(A)p.m(C)p.r(A)p.m(C)p.r(C)p.m(G)p.r(C)p.m(G)p.r(C)p.m(C)p.r(C)p.m(C)p.r(C)p.m(C)p.r(U)p.m(C)p.r(T)p.r(T)}|RNA2{r(G)p.r(A)p.r(G)p.r(G)p.r(G)p.r(G)p.r(G)p.r(G)p.r(C)p.r(G)p.r(C)p.r(G)p.r(G)p.r(U)p.r(G)p.r(U)p.r(A)p.r(G)p.r(A)p.r(T)p.r(T)}$$$RNA1{StrandType:ss}|RNA2{StrandType:as}$”, which target mRNA knockdown is on record?
**A.** 39%

**Q.** With “RNA1{r(A)p.r(A)p.r(C)p.r(C)p.r(C)p.r(A)p.r(C)p.r(C)p.r(A)p.r(C)p.r(A)p.r(G)p.r(C)p.[fl2r](U)p.[fl2r](A)p.r(G)p.r(A)p.r(A)p.r(C)p.r(U)p.r(U)}|RNA2{r(A)p.r(A)p.r(G)p.r(U)p.r(U)p.r(C)p.[fl2r](U)p.[fl2r](A)p.r(G)p.r(C)p.r(U)p.r(G)p.r(U)p.r(G)p.r(G)p.r(U)p.r(G)p.r(G)p.r(G)p.r(U)p.r(U)}$$$RNA1{StrandType:ss}|RNA2{StrandType:as}$” as the substance, how does the target mRNA knockdown read?
**A.** 57%

**Q.** For “RNA1{m(C)p.r(U)p.m(A)p.r(G)p.m(U)p.r(C)p.m(G)p.r(A)p.m(A)p.r(A)p.m(G)p.r(A)p.m(A)p.r(A)p.m(A)p.r(C)p.m(G)p.r(G)p.m(G)p.r(T)p.r(T)}|RNA2{r(C)p.r(C)p.r(C)p.r(G)p.r(U)p.r(U)p.r(U)p.r(U)p.r(C)p.r(U)p.r(U)p.r(U)p.r(C)p.r(G)p.m(A)p.r(C)p.r(U)p.m(A)p.r(G)p.r(T)p.r(T)}$$$RNA1{StrandType:ss}|RNA2{StrandType:as}$”, which target mRNA knockdown is on record?
**A.** 23%

**Q.** With “RNA1{r(G)p.m(U)p.r(A)p.r(C)p.r(U)p.r(C)p.m(U)p.r(G)p.r(A)p.m(U)p.r(G)p.r(A)p.r(G)p.r(G)p.r(A)p.r(A)p.r(G)p.r(A)p.r(G)p.r(T)p.r(T)}|RNA2{r(C)p.r(U)p.r(C)p.r(U)p.r(U)p.r(C)p.r(C)p.r(U)p.m(C)p.r(A)p.r(U)p.m(C)p.r(A)p.r(G)p.r(A)p.r(G)p.r(U)p.m(A)p.r(C)p.r(T)p.r(T)}$$$RNA1{StrandType:ss}|RNA2{StrandType:as}$” as the substance, how does the target mRNA knockdown read?
**A.** 68%

**Q.** With “RNA1{r(C)p.r(U)p.r(U)p.r(A)p.r(C)p.r(G)p.r(C)p.r(U)p.r(G)p.r(A)p.r(G)p.r(U)p.r(A)p.r(C)p.r(U)p.r(U)p.r(C)p.r(G)p.r(A)p.r(T)p.r(T)}|RNA2{[lna](T)p.r(C)p.r(G)p.r(A)p.r(A)p.r(G)p.r(U)p.r(A)p.r(C)p.r(U)p.r(C)p.r(A)p.r(G)p.r(C)p.r(G)p.r(U)p.r(A)p.r(A)p.r(G)p.[lna](T)p.[lna](T)}$$$RNA1{StrandType:ss}|RNA2{StrandType:as}$” as the substance, how does the target mRNA knockdown read?
**A.** 57%

**Q.** For “RNA1{r(A)p.m(A)p.r(G)p.m(G)p.r(A)p.m(G)p.r(A)p.m(U)p.r(C)p.m(A)p.r(A)p.m(C)p.r(A)p.m(U)p.r(U)p.m(U)p.r(U)p.m(C)p.r(A)p.r(T)p.r(T)}|RNA2{m(U)p.r(G)p.m(A)p.r(A)p.m(A)p.r(A)p.m(U)p.r(G)p.m(U)p.r(U)p.m(G)p.r(A)p.m(U)p.r(C)p.m(U)p.r(C)p.m(C)p.r(U)p.m(U)p.r(T)p.r(T)}$$$RNA1{StrandType:ss}|RNA2{StrandType:as}$”, which target mRNA knockdown is on record?
**A.** 83%

**Q.** With “RNA1{[fl2r](A)p.r(G)p.[fl2r](C)p.r(C)p.[fl2r](U)p.r(C)p.[fl2r](C)p.r(A)p.[fl2r](A)p.r(A)p.[fl2r](C)p.r(U)p.[fl2r](C)p.r(C)p.[fl2r](U)p.r(A)p.[fl2r](G)p.r(C)p.[fl2r](U)p.r(T)p.r(T)}|RNA2{r(A)p.r(G)p.r(C)p.r(U)p.r(A)p.r(G)p.r(G)p.r(A)p.r(G)p.r(U)p.r(U)p.r(U)p.r(G)p.r(G)p.r(A)p.r(G)p.r(G)p.r(C)p.r(U)p.r(T)p.r(T)}$$$RNA1{StrandType:ss}|RNA2{StrandType:as}$” as the substance, how does the target mRNA knockdown read?
**A.** 16%

**Q.** For “RNA1{r(A)p.r(G)p.r(U)p.r(U)p.r(U)p.r(C)p.[fl2r](U)p.r(A)p.r(G)p.r(G)p.r(G)p.r(C)p.r(C)p.r(G)p.[fl2r](U)p.r(G)p.r(G)p.r(C)p.r(C)p.r(T)p.r(T)}|RNA2{r(G)p.r(G)p.r(C)p.[fl2r](C)p.r(A)p.r(C)p.r(G)p.[fl2r](G)p.r(C)p.r(C)p.r(C)p.[fl2r](U)p.r(A)p.r(G)p.r(A)p.r(A)p.r(A)p.r(C)p.r(U)p.r(T)p.r(T)}$$$RNA1{StrandType:ss}|RNA2{StrandType:as}$”, which target mRNA knockdown is on record?
**A.** 85%

**Q.** For “RNA1{r(A)p.r(U)p.r(C)p.r(U)p.r(G)p.r(A)p.r(A)p.r(G)p.r(A)p.r(A)p.r(G)p.r(G)p.r(A)p.r(G)p.r(A)p.r(A)p.r(A)p.r(A)p.r(A)p.r(T)p.r(T)}|RNA2{r(U)p.r(U)p.r(U)p.r(U)p.r(U)p.r(C)p.r(U)p.r(C)p.r(C)p.r(U)p.r(U)p.r(C)p.r(U)p.r(U)p.r(C)p.r(A)p.r(G)p.r(A)p.r(U)p.[lna](T)p.[lna](T)}$$$RNA1{StrandType:ss}|RNA2{StrandType:as}$”, which target mRNA knockdown is on record?
**A.** 90%

**Q.** For “RNA1{r(G)p.r(A)p.m(C)p.r(A)p.r(A)p.r(G)p.r(G)p.r(G)p.r(A)p.r(A)p.r(G)p.r(G)p.r(U)p.m(U)p.r(A)p.r(G)p.r(C)p.r(C)p.r(U)p.r(T)p.r(T)}|RNA2{r(A)p.r(G)p.r(G)p.r(C)p.m(U)p.r(A)p.r(A)p.r(C)p.r(C)p.r(U)p.r(U)p.r(C)p.r(C)p.r(C)p.r(U)p.m(U)p.r(G)p.r(U)p.r(C)p.r(T)p.r(T)}$$$RNA1{StrandType:ss}|RNA2{StrandType:as}$”, which target mRNA knockdown is on record?
**A.** 68%

**Q.** Which target mRNA knockdown does the source give for “RNA1{r(G)p.r(A)p.r(A)p.r(G)p.r(G)p.r(G)p.r(G)p.r(A)p.r(A)p.r(A)p.r(U)p.r(C)p.m(U)p.m(G)p.m(U)p.m(G)p.r(G)p.r(U)p.r(U)p.r(T)p.r(T)}|RNA2{r(A)p.r(A)p.r(C)p.m(C)p.m(A)p.m(C)p.m(A)p.r(G)p.r(A)p.r(U)p.r(U)p.r(U)p.r(C)p.r(C)p.r(C)p.r(C)p.r(U)p.r(U)p.r(C)p.r(T)p.r(T)}$$$RNA1{StrandType:ss}|RNA2{StrandType:as}$” here?
**A.** 61%

**Q.** With “RNA1{r(G)p.r(A)p.r(A)p.r(G)p.r(A)p.[fl2r](U)p.r(A)p.r(G)p.r(G)p.r(A)p.r(A)p.r(G)p.r(G)p.r(G)p.r(G)p.[fl2r](C)p.[fl2r](U)p.[fl2r](U)p.[fl2r](C)p.r(T)p.r(T)}|RNA2{r(G)p.r(A)p.r(A)p.r(G)p.r(C)p.r(C)p.r(C)p.r(C)p.r(U)p.r(U)p.r(C)p.r(C)p.r(U)p.r(A)p.r(U)p.r(C)p.r(U)p.r(U)p.r(C)p.r(T)p.r(T)}$$$RNA1{StrandType:ss}|RNA2{StrandType:as}$” as the substance, how does the target mRNA knockdown read?
**A.** 45%

**Q.** With “RNA1{r(A)p.r(U)p.r(C)p.r(G)p.r(A)p.r(C)p.r(C)p.[fl2r](U)p.r(G)p.r(A)p.r(A)p.r(G)p.r(G)p.r(A)p.r(G)p.[fl2r](U)p.r(A)p.r(C)p.r(G)p.r(T)p.r(T)}|RNA2{r(C)p.r(G)p.[fl2r](U)p.r(A)p.r(C)p.r(U)p.r(C)p.r(C)p.r(U)p.r(U)p.[fl2r](C)p.r(A)p.r(G)p.r(G)p.r(U)p.r(C)p.r(G)p.r(A)p.r(U)p.r(T)p.r(T)}$$$RNA1{StrandType:ss}|RNA2{StrandType:as}$” as the substance, how does the target mRNA knockdown read?
**A.** 46%

**Q.** With “RNA1{r(C)p.r(C)p.r(C)p.r(U)p.r(C)p.r(C)p.r(C)p.r(C)p.[fl2r](U)p.r(G)p.r(U)p.r(C)p.r(C)p.r(C)p.r(C)p.r(G)p.r(C)p.r(U)p.r(U)p.r(T)p.r(T)}|RNA2{r(A)p.r(A)p.r(G)p.r(C)p.r(G)p.r(G)p.r(G)p.r(G)p.r(A)p.r(C)p.r(A)p.r(G)p.r(G)p.r(G)p.r(G)p.r(A)p.r(G)p.r(G)p.r(G)p.r(T)p.r(T)}$$$RNA1{StrandType:ss}|RNA2{StrandType:as}$” as the substance, how does the target mRNA knockdown read?
**A.** 73%

**Q.** With “RNA1{m(C)p.r(G)p.m(G)p.r(A)p.m(U)p.r(C)p.m(U)p.r(A)p.m(C)p.r(A)p.m(C)p.r(C)p.m(U)p.r(U)p.m(C)p.r(A)p.m(A)p.r(G)p.m(A)p.r(T)p.r(T)}|RNA2{r(U)p.r(C)p.r(U)p.r(U)p.r(G)p.r(A)p.r(A)p.r(G)p.r(G)p.r(U)p.r(G)p.r(U)p.m(A)p.r(G)p.m(A)p.r(U)p.m(C)p.r(C)p.m(G)p.r(T)p.r(T)}$$$RNA1{StrandType:ss}|RNA2{StrandType:as}$” as the substance, how does the target mRNA knockdown read?
**A.** 46%

**Q.** With “RNA1{r(G)p.r(U)p.r(A)p.r(U)p.r(U)p.r(G)p.r(A)p.r(C)p.r(A)p.r(G)p.r(C)p.r(U)p.r(A)p.r(U)p.r(U)p.r(C)p.r(G)p.r(A)p.r(A)p.d(T)p.d(T)}|RNA2{r(U)p.r(U)p.r(C)p.r(G)p.r(A)p.r(A)p.r(U)p.r(A)p.r(G)p.r(C)p.r(U)p.r(G)p.r(U)p.r(C)p.r(A)p.r(A)p.r(U)p.r(A)p.r(C)p.d(T)p.d(T)}$$$RNA1{StrandType:ss}|RNA2{StrandType:as}$” as the substance, how does the target mRNA knockdown read?
**A.** 73%

**Q.** For “RNA1{r(A)p.r(A)p.r(G)p.r(G)p.r(C)p.r(C)p.r(A)p.r(A)p.r(C)p.r(C)p.r(G)p.r(A)p.[fl2r](U)p.r(A)p.r(C)p.r(U)p.r(U)p.r(C)p.r(U)p.r(T)p.r(T)}|RNA2{r(A)p.r(G)p.r(A)p.r(A)p.r(G)p.[fl2r](U)p.r(A)p.r(U)p.r(C)p.r(G)p.r(G)p.r(U)p.r(U)p.r(G)p.r(G)p.r(C)p.r(C)p.r(U)p.r(U)p.r(T)p.r(T)}$$$RNA1{StrandType:ss}|RNA2{StrandType:as}$”, which target mRNA knockdown is on record?
**A.** 69%

**Q.** Which target mRNA knockdown does the source give for “RNA1{r(A)p.r(C)p.r(C)p.r(G)p.r(A)p.r(C)p.r(G)p.r(A)p.r(U)p.r(U)p.r(C)p.r(U)p.r(U)p.r(C)p.r(U)p.r(A)p.r(C)p.r(U)p.r(C)p.r(T)p.r(T)}|RNA2{r(G)p.r(A)p.r(G)p.m(U)p.r(A)p.r(G)p.r(A)p.r(A)p.r(G)p.r(A)p.r(A)p.r(U)p.r(C)p.r(G)p.r(U)p.r(C)p.r(G)p.r(G)p.r(U)p.r(T)p.r(T)}$$$RNA1{StrandType:ss}|RNA2{StrandType:as}$” here?
**A.** 68%
